Data on 1 compound can be found in article PMC9369311, “Examination of Intracellular GPCR-Mediated Signaling with High Temporal Resolution” (International Journal of Molecular Sciences, 2022).

The assay deals with T1, DmOctα1B receptor (Drosophila melanogaster, UniProt Q7JQF1).
T1 construct: expressed in transfected cells
T1 sequence (Q7JQF1 1-645): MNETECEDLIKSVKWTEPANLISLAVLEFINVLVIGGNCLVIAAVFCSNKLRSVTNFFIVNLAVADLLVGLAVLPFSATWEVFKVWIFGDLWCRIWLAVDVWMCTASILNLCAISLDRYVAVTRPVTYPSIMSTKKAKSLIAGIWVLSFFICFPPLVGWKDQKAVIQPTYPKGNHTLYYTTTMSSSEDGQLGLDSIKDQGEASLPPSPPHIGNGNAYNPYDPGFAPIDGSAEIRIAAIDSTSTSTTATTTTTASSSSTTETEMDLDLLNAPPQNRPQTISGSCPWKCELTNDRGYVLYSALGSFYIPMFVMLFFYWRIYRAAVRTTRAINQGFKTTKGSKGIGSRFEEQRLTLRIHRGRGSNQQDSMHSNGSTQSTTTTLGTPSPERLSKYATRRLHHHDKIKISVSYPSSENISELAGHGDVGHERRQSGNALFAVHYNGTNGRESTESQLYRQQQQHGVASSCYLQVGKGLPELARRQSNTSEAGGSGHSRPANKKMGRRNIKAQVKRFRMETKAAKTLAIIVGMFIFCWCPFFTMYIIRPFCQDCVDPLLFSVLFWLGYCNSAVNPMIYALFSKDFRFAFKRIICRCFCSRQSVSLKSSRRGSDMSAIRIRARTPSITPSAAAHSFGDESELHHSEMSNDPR
The experiment in a line: Ca2+ fluorimetry in plate reader (96 MWP), DmOctα1B-expressing HEK293 cells. The assay is classed as cell-based. The protocol: Both the DmOctα1B receptor- and DmOctβ1 receptor-expressing (=flpTM-DmOctβ1) cell lines were initially investigated via Ca^2+ fluorimetric measurements in a plate reader. The cells were seeded in 96 well plates and loaded with Fluo-4, enabling the detection of changes in [Ca^2+]i. The Fluo-4 was excited at 485 nm and the fluorescence emission was recorded at 510 nm. To overcome the cAMP degradation by cell-endogenous phosphodiesterases, the DmOctβ1-expressing cells were treated with 100 µM iso-butylmethylxanthine (IBMX). Prior to the ligand application, the basal fluorescence (F0) was recorded and the concentration–response curves were generated by plotting the changes in fluorescence ((Fmax − F0)/F0 = ΔF/F0) against the ligand concentrations. For a better comparison, the fluorescence intensities were normalized. The maximal change in fluorescence for each of the stimulation series was defined as 100%. The EC50 values were determined from a nonlinear regression plot (four parameters) using GraphPad Prism v5.04 for analysis and display.
In order to omit loading with the fluorescent dye, both the DmOctα1B-expressing cells and flpTM-DmOctβ1 cells were stably transfected with a construct encoding the cytosolic version of GCaMP3.0. As in the previous experiment with Fluo-4, the GCaMP3.0-expressing cell lines were seeded in 96 well plates and incubated with the same series of increasing octopamine concentrations. The GCaMP3.0 was excited at 485 nm and the fluorescence emission was recorded at 510 nm. The basal fluorescence (F0) was recorded before adding the octopamine concentration series. The fluorescence intensities were normalized to the maximal change in fluorescence, defined as 100%. The concentration–response curves were generated with GraphPad Prism v5.04. In Figure 1, the concentration–response curves obtained with Fluo-4 and GCaMP3.0 are depicted for both of the receptors. […]

Molecules are shown by their SMILES. Where “and” joins values, the source holds several entries; their conditions need not be identical. Identical values can stand only once. Like-named read-outs stand apart in the source and are kept apart here.

For the compound `NCC(O)c1ccc(O)cc1` (stereo not drawn) [octopamine], the EC50 (DmOctα1B cells loaded with Fluo-4, 96 MWP plate reader, read-out: EC50) was ~12 nM and 12 nM; the EC50 (DmOctα1B-GCaMP3.0 cells, 96 MWP plate reader, read-out: EC50) was determined as 14 nM; the EC50 (DmOctα1B-GCaMP3.0 cells, 96 MWP, given as logEC50 (negative), read-out: logEC50 ± SD (converted)) was 15.8 nM.
